In PubChem BioAssay AID248 (DTP/NCI, 2004):
Inconclusive results and toxic doses are left out. Rule as the data show it: active = T/C of 150% or more; inactive = T/C below 125%.

Tested on: L1210 leukemia ip in BDF1 mice, survival T/C
Assay: NCI In Vivo Anticancer Drug Screen. Data for tumor model L1210 Leukemia (intraperitoneal) in B6D2F1 (BDF1) mice
Conditions: endpoint: mean survival time, higher = longer survival
Summary of the method: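 Transplanted-tumor mice were given test agent; controls received vehicle only. Survival readings from the two groups were divided (treated over control).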

[1] = dose: 100.0 mg/kg/injection, schedule: Q01DX001 (ip), vehicle: carboxymethylcellulose (CMC)
[2] = dose: 200.0 mg/kg/injection, schedule: Q01DX001 (ip), vehicle: carboxymethylcellulose (CMC)
[3] = dose: 400.0 mg/kg/injection, schedule: Q01DX001 (ip), vehicle: carboxymethylcellulose (CMC)
[4] = dose: 100.0 mg/kg/injection, schedule: Q01DX009 (ip), vehicle: saline
[5] = dose: 100.0 mg/kg/injection, schedule: Q01DX009 (ip), vehicle: Klucel (hydroxypropylcellulose) (HPC)
[6] = dose: 200.0 mg/kg/injection, schedule: Q01DX009 (ip), vehicle: Klucel (hydroxypropylcellulose) (HPC)
[7] = dose: 100.0 mg/kg/injection, schedule: Q04DX003 (ip), vehicle: saline
[8] = dose: 200.0 mg/kg/injection, schedule: Q04DX003 (ip), vehicle: saline
[9] = dose: 400.0 mg/kg/injection, schedule: Q04DX003 (ip), vehicle: saline
[10] = dose: 100.0 mg/kg/injection, schedule: Q01DX009 (ip), vehicle: saline with Tween-80
[11] = dose: 400.0 mg/kg/injection, schedule: Q01DX009 (ip), vehicle: Klucel (hydroxypropylcellulose) (HPC)
[12] = dose: 75.0 mg/kg/injection, schedule: Q01DX001 (ip), vehicle: saline

Measured: T/C

CCCCOP(=O)(Cc1ccc(Cl)cc1Cl)OCCCC
inactive: dose: 100.0 mg/kg/injection, schedule: Q04DX002 (ip), vehicle: saline with Tween-80 109 % of control | dose: 200.0 mg/kg/injection, schedule: Q04DX002 (ip), vehicle: saline with Tween-80 109 % of control | dose: 400.0 mg/kg/injection, schedule: Q04DX002 (ip), vehicle: saline with Tween-80 98 % of control

CCc1ccc(N=Nc2ccc(-c3ccc(NC(C)=O)cc3)cc2)cc1
inactive: [1] 94 % of control | [2] 102 % of control | [3] 105 % of control

CCN(Cc1ccccc1)C(=O)Nc1cccc(Cl)c1
inactive: dose: 100.0 mg/kg/injection, schedule: Q01DX009 (ip), vehicle: other 106 % of control | dose: 200.0 mg/kg/injection, schedule: Q01DX009 (ip), vehicle: other 108 % of control | dose: 400.0 mg/kg/injection, schedule: Q01DX009 (ip), vehicle: other 105 % of control

Cc1nc(C(=O)O)cs1
inactive: dose: 50.0 mg/kg/injection, schedule: Q01DX009 (ip), vehicle: saline 95 % of control | dose: 50.0 mg/kg/injection, schedule: Q04DX003 (ip), vehicle: acetone 90 % of control | dose: 100.0 mg/kg/injection, schedule: Q01DX001 (ip), vehicle: acetone 98 % of control | [4] 92 % of control | dose: 100.0 mg/kg/injection, schedule: Q04DX003 (ip), vehicle: acetone 92 % of control | dose: 200.0 mg/kg/injection, schedule: Q01DX001 (ip), vehicle: acetone 102 % of control | dose: 200.0 mg/kg/injection, schedule: Q04DX003 (ip), vehicle: acetone 95 % of control

[Se]=P(c1ccccc1)(c1ccccc1)c1ccccc1
inactive: [5] 103 % of control | [6] 90 % of control

CC(=O)Nc1nc(C)c(CCCN(Cc2ccccc2)C(C)=O)c(=O)[nH]1
inactive: dose: 75.0 mg/kg/injection, schedule: Q01DX001 (ip), vehicle: Klucel (hydroxypropylcellulose) (HPC) 96 % of control | dose: 150.0 mg/kg/injection, schedule: Q01DX001 (ip), vehicle: Klucel (hydroxypropylcellulose) (HPC) 99 % of control | dose: 300.0 mg/kg/injection, schedule: Q01DX001 (ip), vehicle: Klucel (hydroxypropylcellulose) (HPC) 92 % of control

O=c1[nH]c(=O)c2n[nH]nc2[nH]1
inactive: dose: 1.0 mg/kg/injection, schedule: Q01DX009 (ip), vehicle: saline 103 % of control | dose: 2.0 mg/kg/injection, schedule: Q01DX009 (ip), vehicle: saline 93 % of control | dose: 4.0 mg/kg/injection, schedule: Q01DX009 (ip), vehicle: saline 95 % of control | dose: 8.0 mg/kg/injection, schedule: Q01DX009 (ip), vehicle: saline 103 % of control | dose: 16.0 mg/kg/injection, schedule: Q01DX009 (ip), vehicle: saline 101 % of control | dose: 16.0 mg/kg/injection, schedule: Q01DX015 (ip), vehicle: carboxymethylcellulose (CMC) 88 % of control | dose: 75.0 mg/kg/injection, schedule: Q01DX009 (ip), vehicle: saline 110 % of control | [1] 96 % of control | dose: 115.0 mg/kg/injection, schedule: Q01DX009 (ip), vehicle: saline 107 % of control | dose: 125.0 mg/kg/injection, schedule: Q01DX015 (ip), vehicle: carboxymethylcellulose (CMC) 92 % of control | dose: 170.0 mg/kg/injection, schedule: Q01DX009 (ip), vehicle: saline 98 % of control | [2] 102 % of control | dose: 255.0 mg/kg/injection, schedule: Q01DX009 (ip), vehicle: saline 97 % of control | dose: 385.0 mg/kg/injection, schedule: Q01DX009 (ip), vehicle: saline 105 % of control | [3] 91 % of control

O=C(Cn1ccc(=O)[nH]c1=O)c1ccco1
inactive: [7] 102 % of control | [8] 107 % of control | [9] 98 % of control

CCOC(=O)C(C)N(c1ccccc1)S(=O)(=O)c1ccc(C)cc1 (stereo not drawn)
inactive: [1] 103 % of control | [2] 110 % of control | [3] 113 % of control

Cc1c2ccn(O)cc2cc2c1nc1ccccc12
inactive: dose: 18.75 mg/kg/injection, schedule: Q01DX009 (ip), vehicle: other 116 % of control | dose: 37.5 mg/kg/injection, schedule: Q01DX009 (ip), vehicle: other 114 % of control | dose: 75.0 mg/kg/injection, schedule: Q01DX009 (ip), vehicle: other 112 % of control | dose: 150.0 mg/kg/injection, schedule: Q01DX009 (ip), vehicle: other 110 % of control

CC1CC[N-]CC1.CC1CC[N-]CC1.CS(C)=O.[Cl][Rh]([Cl])[Cl]
inactive: dose: 3.0 mg/kg/injection, schedule: Q01DX009 (ip), vehicle: saline with Tween-80 98 % of control | dose: 6.0 mg/kg/injection, schedule: Q01DX009 (ip), vehicle: saline with Tween-80 106 % of control | dose: 12.0 mg/kg/injection, schedule: Q01DX009 (ip), vehicle: saline with Tween-80 109 % of control

CCN(CC)CCNCc1ccccc1
inactive: dose: 25.0 mg/kg/injection, schedule: Q01DX003 (ip), vehicle: saline 99 % of control | dose: 50.0 mg/kg/injection, schedule: Q01DX003 (ip), vehicle: saline 97 % of control | dose: 75.0 mg/kg/injection, schedule: Q01DX003 (ip), vehicle: saline 99 % of control | dose: 75.0 mg/kg/injection, schedule: Q04DX003 (ip), vehicle: saline 97 % of control

O=C(O)C1C(C(=O)O)C(c2ccccc2)C1c1ccccc1 (stereo not drawn)
inactive: dose: 50.0 mg/kg/injection, schedule: Q01DX001 (ip), vehicle: carboxymethylcellulose (CMC) 90 % of control | [1] 97 % of control | [2] 103 % of control | [3] 90 % of control

O=C(Nc1ccccc1)Oc1ccc(OCc2ccccc2)cc1
inactive: dose: 12.5 mg/kg/injection, schedule: Q04DX003 (ip), vehicle: saline with Tween-80 95 % of control | dose: 25.0 mg/kg/injection, schedule: Q04DX003 (ip), vehicle: saline with Tween-80 93 % of control | dose: 50.0 mg/kg/injection, schedule: Q04DX003 (ip), vehicle: saline with Tween-80 93 % of control

O/N=C/c1ccccc1
inactive: dose: 66.0 mg/kg/injection, schedule: Q01DX009 (ip), vehicle: saline with Tween-80 87 % of control | [10] 96 % of control | dose: 150.0 mg/kg/injection, schedule: Q01DX009 (ip), vehicle: saline with Tween-80 95 % of control

CC(=O)CSc1ccc(C(C)(C)C)cc1
inactive: [1] 102 % of control | [2] 96 % of control | [3] 105 % of control

CC(NC(=O)Nc1ccccc1Cl)c1ccccc1 (stereo not drawn)
inactive: [5] 105 % of control | [6] 105 % of control | [11] 102 % of control

Cc1nc(N)[nH]c(=O)c1CCCNS(=O)(=O)c1ccc(C(=O)CBr)cc1
inactive: [1] 93 % of control | [2] 87 % of control | [3] 96 % of control

O=C1NCCN1
inactive: [4] 101 % of control | dose: 100.0 mg/kg/injection, schedule: Q04DX002 (ip), vehicle: saline 103 % of control | [7] 104 % of control | dose: 200.0 mg/kg/injection, schedule: Q01DX009 (ip), vehicle: saline 106 % of control | dose: 200.0 mg/kg/injection, schedule: Q04DX002 (ip), vehicle: saline 107 % of control | [8] 101 % of control | dose: 400.0 mg/kg/injection, schedule: Q01DX009 (ip), vehicle: saline 106 % of control | dose: 400.0 mg/kg/injection, schedule: Q04DX002 (ip), vehicle: saline 107 % of control | [9] 95 % of control

O=C(O)C(C(=O)O)C(=O)O
inactive: [12] 94 % of control | dose: 150.0 mg/kg/injection, schedule: Q01DX001 (ip), vehicle: saline 94 % of control

C=C(Cl)CSc1ncnc2nc[nH]c12
inactive: [12] 98 % of control

COc1ccc(Cl)cc1NC(=O)Oc1ccc(F)cc1
inactive: [5] 87 % of control | [6] 97 % of control | [11] 87 % of control

CC(C)(CO)N=Cc1ccccc1O.CC(C)(CO)N=Cc1ccccc1O.[Co]
inactive: dose: 12.5 mg/kg/injection, schedule: Q01DX001 (ip), vehicle: saline 97 % of control | dose: 25.0 mg/kg/injection, schedule: Q01DX001 (ip), vehicle: saline 97 % of control | dose: 50.0 mg/kg/injection, schedule: Q01DX001 (ip), vehicle: saline 92 % of control

O=C1OC(c2cccc([N+](=O)[O-])c2)=N/C1=C\c1ccccc1
inactive: [10] 94 % of control | dose: 200.0 mg/kg/injection, schedule: Q01DX009 (ip), vehicle: saline with Tween-80 102 % of control | dose: 400.0 mg/kg/injection, schedule: Q01DX009 (ip), vehicle: saline with Tween-80 94 % of control
